Series [1] deals with Aβ (1-40) secretion, CHO7W (stably transfected with human APP751 wt cDNA). In words: Inhibition of Aβ(1-40) secretion (ELISA of cellular supernatants). It counts as cell-based. Conditions: CHO7W cells, Aβ(1-40) in supernatants. The source says:
To quantitate Aβ secretion ELISA-based method was used. The assay consists in detection of antigen by selective monoclonal anti-Aβ-antibodies at two different epitopes forming a “Sandwich-complex”, that is detected by colorimetric measure due to the binding of a secondary antibody conjugated with peroxidase that catalyses the conversion of a substrate or chromogen, TMB, into a coloured product, directly proportional to the peptide quantity in the sample. The Aβ production has been analyzed by ELISA, using a colorimetric commercial kit: H-amuloid b-30 ELISA (The Genetics Company).
Aβ (1-40) were quantified from cellular supernatants. An APP-transfected cell line has been employed for the experiments: CHO7W (stably transfected with human APP751 wt cDNA). The cells were grown in a culture medium consisting of DMEM supplemented with 2% Fetal bovine serum, 1% penicillin-streptomycin, 1% L-glutamine and 200 μg/ml G418. Cells are seeded in 96-well culture microplate, at 5000 cells/well and treatment with different compounds at different concentrations is performed 24 hour after seeding.

The test system of another series is SH-SY5Y cells. In words: Neuroprotection against Aβ25-35 toxicity (LDH). The series is classed as cell-based, human. Conditions: pre-treated 1 hour, then 24 hours 200 μM Aβ25-35. As for the experimental part: In order to evaluate potential neuroprotection of compounds, SH-SY5Y cells, cultured in 96-well plates, were pre-treated for 1 hour with the compound at different concentrations and then exposed 24 hours to 200 μM Aβ25-35 (Neosystem) to induce extensive oxidative stress and cell death. The ability of the compound of protecting against this toxicity is then evaluated by measuring intracellular LDH, using the colorimetric LDH assay.
It is widely accepted that the neurotoxic activity of Aβ resides within amino acids 25-35 (see e.g. Yankner B A et al., (1990) Neurotrophic and neurotoxic effects of amyloid β protein: reversal by tachykinin neuropeptides; Science 250:279-282).

For series [2], the system named is SH-SY5Y human neuroblastoma cells. In words: Protection against hydrogen peroxide-induced cell death (LDH). It counts as cell-based. Conditions: compound 1 h before H2O2 100 μM during 24 h. As for the experimental part:
The aim of this assay is to determine the neuroprotective effect of the compounds of formula (I), when human neuroblastoma cells are exposed to oxidative stress induced by hydrogen peroxide, which is highly deleterious to the cell and its accumulation causes oxidation of cellular targets such as DNA, proteins, and lipids leading to mutagenesis and cell death.
SH-SY5Y human neuroblastoma cells are seeded into 96-well culture plate at a density of 10^4 cells/well. Cells are exposed to different concentrations of the compound one hour before the treatment with H2O2 100 μM during 24 h. 5 mM N-acetylcysteine (NAC), a known anti-oxidant agent was used as a positive control, and preincubated 1 hour before the treatment with H2O2. After 24 h, the medium is removed and cells attached to the bottom of the well are lysed by adding 50 μl of Triton X-100 1% in Krebs-Hepes during 5 minutes at room temperature. For LDH release quantification, Roche cytotoxicity detection kit (Cat. No. 11 644 793 001) was used.

For series [3] the test system is unchanged. In words: Toxicity: cell viability by LDH activity release. It counts as cell-based. The following applies: 24 h. As for the experimental part:
The potential effects on cell viability of the tested compounds were assessed in SH-SY5Y human neuroblastoma cells, by quantification of Lactate dehydrogenase (LDH) activity release. SH-SY5Y human neuroblastoma cells were seeded into 96-well culture plates at 10^4 cells/well. The medium was then removed and the cells incubated with different concentrations of the compounds during 24 h. […] After 24 h, the medium was removed and cells attached to the bottom of the well were lysed by adding 50 μl of Krebs-Hepes; Triton X-100 1% during 5 minutes at room temperature. For LDH release quantification, the Roche cytotoxicity detection kit (Cat. No. 11 644 793 001) was used. The LDH activity was measured by its absorbance at 492 nm with reference wavelength 620 nm.
In Table 2, for each compound the maximum concentration at which cell viability was tested is indicated in the second column. In the third column, it is indicated whether at this maximum concentration the compound affected or not cell viability (>20% of cell death).

The test system is the same in series [4]. Briefly: Protection against 6-OHDA-induced cell death (LDH). The series is classed as cell-based. The following applies: preincubated 2 hours before 6-OHDA 75 μM during 16 hours, 10% Foetal bovine serum. The source says:
The aim of this experiment is to determine the protective effect of the compounds of formula (I) against the toxicity caused by 6-OHDA. This toxin induces a cell death similar to which occurs in Parkinson's disease, destroying dopaminergic neurons (“MPTP and 6-hydroxydopamine-induced neurodegeneration as models for Parkinson's disease: neuroprotective strategies”; Grunblatt E, et al.; J Neurol. 2000 April; 247 Suppl 2:II95-102).
Two or three days before the experiment, the SH-SY5Y human neuroblastoma cells are seeded into 96-well culture plate at a density of 10^4 cells/well. Cells are exposed to the treatment with 6-OHDA and, finally, cell death is measured by LDH quantification. As positive control we used NAC.
NAC and the compound of formula (I) are preincubated during 2 hours before the treatment with 6-OHDA 75 μM during 16 hours. The assay is performed in medium containing 10% Foetal bovine serum.
For each compound the minimum concentration of compound of formula (I) at which a neuroprotective effect is shown.

Where [5] appears, read: maximum concentration tested 100 μM.
Where [6] appears, read: maximum concentration tested 1000 μM.

For `COc1cc2cccnc2c2nc(/C=N/O)cc(SC)c12` [A, 5-methoxy-4-methylsulfanyl-[1,10]-phenanthroline-2-carbaldehyde oxime], in series [1], the “inhibition Aβ secretion (minimum concentration at which the compound inhibits beta-amyloid secretion)” value (“inhibition Aβ secretion” below) was 0.1 µM. The “Protection β-Amiloyd (minimum concentration showing neuroprotection against Aβ25-35 toxicity)” value (“Protection β-Amiloyd” for short) in the series on SH-SY5Y cells came out at 5 µM. In addition, the “Protect H2O2 (minimum concentration for which protection against H2O2 was determined)” value (shortened to “Protect H2O2”) in series [2] worked out at 0.05 µM. In series [3] (setting [5]), the “Yes/No: compound affected cell viability at maximum concentration tested” value (“Yes/No: compound affected cell viability” below) was “Y (affected or not cell viability (>20% of cell death))”. For the same compound, in series [4], the “Protection 6-OHDA (minimum concentration at which a neuroprotective effect is shown)” value (“Protection 6-OHDA” for short) worked out at 0.05 µM.
For the compound `COCCOc1cc2cccnc2c2nc(/C=N/O)cc(OC)c12` [C, 4-methoxy-5-(2-methoxy-ethoxy)-[1,10]-phenanthroline-2-carbaldehyde oxime], in series [1], the “inhibition Aβ secretion” value was 0.1 µM. In the series on SH-SY5Y cells, the “Protection β-Amiloyd” value was 5 µM. Besides, in series [2], the “Protect H2O2” value was found to be 0.005 µM. The “Yes/No: compound affected cell viability” value in series [3] (setting [6]) is “N (affected or not cell viability (>20% of cell death))”. For the same compound, the “Protection 6-OHDA” value in series [4] was 0.5 µM.
For the compound `COc1cc2c(=O)cc(/C=N/O)[nH]c2c2ncccc12` [F, 6-methoxy-4-oxo-1,4-dihydro-[1,10]phenanthroline-2-carbaldehyde oxime], the “Yes/No: compound affected cell viability” value in series [3] (setting [6]) is given as “N (affected or not cell viability (>20% of cell death))”. In addition, the “Protection 6-OHDA” value in series [4] was 10 µM.
In the case of `COc1cc(/C=N/O)nc2c1c(F)cc1cccnc12` [B, 5-fluoro-4-methoxy-[1,10]-phenanthroline-2-carbaldehyde oxime], the “inhibition Aβ secretion” value in series [1] came out at 1 µM. The “Protection β-Amiloyd” value in the series with SH-SY5Y cells worked out at 5 µM. Also, in series [2], the “Protect H2O2” value worked out at 0.05 µM. For the same compound, in series [3] (setting [6]), the “Yes/No: compound affected cell viability” value was “N (affected or not cell viability (>20% of cell death))”. Also, in series [4], the “Protection 6-OHDA” value amounted to 0.05 µM.
For the compound `CSc1cc(/C=N/O)nc2c1c(C)cc1cccnc12` [D, 5-methyl-4-methylsulfanyl-[1,10]phenanthroline-2-carbaldehyde oxime], in series [1], the “inhibition Aβ secretion” value turned out to be 1 µM. Besides, in the series with SH-SY5Y cells, the “Protection β-Amiloyd” value amounted to 0.5 µM. Further, in series [2], the “Protect H2O2” value is 0.5 µM. The “Yes/No: compound affected cell viability” value in series [3] (setting [6]) is reported as “N (affected or not cell viability (>20% of cell death))”. For the same compound, the “Protection 6-OHDA” value in series [4] stood at 0.05 µM.
Turning to `COc1cc2c(SC)cc(/C=N/O)nc2c2ncccc12` [E, 6-methoxy-4-methylsulfanyl-[1,10]phenanthroline-2-carbaldehyde oxyme], the “inhibition Aβ secretion” value in series [1] turned out to be 10 µM. For the same compound, in the series with SH-SY5Y cells, the “Protection β-Amiloyd” value came to 10 µM. The “Protect H2O2” value in series [2] came out at 0.05 µM. In series [3] (setting [5]), the “Yes/No: compound affected cell viability” value is reported as “Y (affected or not cell viability (>20% of cell death))”. The “Protection 6-OHDA” value in series [4] was 0.5 µM.

The values are drawn from patent US20110306631A1, “TRIPLE SUBSTITUTED PHENANTHROLINE DERIVATIVES FOR THE TREATMENT OF NEURODEGENERATIVE OR HAEMATOLOGICAL DISEASES OR CONDITIONS, OR CANCER” (NOSCIRA, S.A., priority 2008, published 2011).
